Test results reported in patent publication US10457700B2, “Platinum prodrugs and methods of making and using thereof” (UNIVERSITY OF GEORGIA RESEARCH FOUNDATION, INC., priority 2015, dated 2019).

Experiments:
GST enzyme = assay: GST enzymatic substrate competitive assay / cellular GST activity assay; assay type: biochemical; conditions: 50 or 100 μM, in buffer or A2780/CP70 cell lysates
Protocol: GST enzyme modulates GSH to attack on labile electrophilic halide containing molecules in cellular detoxification processes. […] GST enzymatic activity was evaluated by following the formation of GSH and 1-chloro-2,4-dinitrobenzene (CDNB) adduct.
This assay was performed according to the instruction given by the manufacturer (GST activity assay kit ab65326). AU the standard solutions were prepared as per the instruction. Samples were prepared in a total 50 μL volume with GST assay buffer, including a negative control with 50 μL of GST assay buffer only and a positive control (10 μL of GST positive control diluted to 1:50) and 40 μL of GST assay buffer only. Sample wells contained 10 μL of GST enzyme diluted to 1:50 and remaining of GST assay buffer. To each well, 5 μL GSH was added. 50 μL of substrate mix containing GST substrate CDNB (5 μL) was prepared. […] Then, 50 μL of substrate mix was added to each well including controls. The plate was stirred carefully to initiate the reaction and absorbance values were recorded once every minute at 340 nm using a plate reader to obtain 20 data points. GST activity was calculated through the kinetic plot obtained from the time (min) vs. optical density (OD340 nm) using the formula GST activity=ΔA340 min^−1/0.002777 μM·D/A, where D is the enzyme sample dilution factor and A is the enzyme sample volume added to each well. […]

[1] = tested on: mitochondrial respiration of A2780/CP70 cells; assay: MitoStress test, Seahorse XF24 (OCR); assay type: cell-based, human; conditions: 1 μM, 24 h
Excerpt: Prior to the assay, XF sensor cartridges were hydrated. […] The parameters calculated included: basal respiration (baseline respiration minus antimycin-A post injection respiration), ATP turnover (baseline respiration minus oligomycin post injection respiration), maximal respiratory capacity (FCCP stimulated respiration minus antimycin-A post injection respiration) and reserve respiratory capacity (FCCP stimulated respiration minus baseline respiration).

[2] = Cyclic voltammetry, Pt(IV)/Pt(II) reduction potential; assay type: physicochemical; conditions: 0.1 M KCl
Protocol: Redox potential of platinum (IV) prodrugs play important roles in regulating efficacy. The disclosed Pt(IV) prodrugs can be activated selectively by intracellular reduction, preferably at the tumor sites to reduce side effects. Redox potential is a measure of the ability of Pt(IV) compounds to form the active platinum (II) species. Electrochemical measurements on Platin-B were carried out in dimethylformamide (DMF)-phosphate buffered saline (PBS) at pH 6.0 and 7.4. Specifically, a conventional three-electrode set-up comprising a glassy carbon working electrode, platinum wire auxiliary electrode, and Ag/AgCl (3M KCl) reference electrode was used for electrochemical measurements. The electrochemical data were uncorrected for junction potentials. KCl was used as a supporting electrolyte. Platin-B (2 mM) solutions were prepared in 40% DMF phosphate buffered saline (PBS) of pH 6.0 and 7.4 with 0.1 M KCl and voltammograms were recorded at different scan rates.

A2780/CP70 cells [3] = assay: Apoptosis detection by Annexin V-PI assay; assay type: cell-based, human; conditions: 50 μM, 12 h
Protocol: Enhanced activity of Platin-B in A2780/CP70 cells was further confirmed by Annexin-V-propidium iodide (PI) apoptosis-necrosis assay. […] The cells were trypsinized, repeatedly washed collecting the supernatants, and centrifuged at 754×g for 3 min, and the supernatants were collected. Cell density was determined and cells were resuspended in 1× annexinV-binding buffer to 1×10^6 cells/mL preparing a sufficient volume to have 100 μL per assay. To 100 μL of cell suspension, 5 μL ALEXA FLUOR™ 488 annexin V and 1 μL of 100 μg/mL PI working solution were added, incubated for 15 min at room temperature. After the incubation period, 400 μL of 1× annexin-binding buffer was added to each sample, samples were gently mixed keeping the samples on ice, and the samples were analyzed on the flow cytometer immediately.

[4] = tested on: citrate synthase activity in A2780/CP70 cells; assay: Citrate synthase activity assay; assay type: cell-based, human; conditions: 1 μM, 24 h
Protocol: Citrate synthase activity assay was performed by following the instruction given in MitoCheck Citrate Synthase Activity assay kit (Cayman item no. 701040). Briefly, A2780/CP70 cells were seeded at a density of 1.2×10^6 cells/7 mL in 25 cm^2 cell culture flask and grown overnight. […] The cells were then scraped in presence of fresh media and centrifuged to obtain the cell pellet. The resultant pellet was washed 2 times with 1×PBS and solubilized in 200 μL extraction buffer. This cell suspension was incubated on ice for 20 min followed by centrifugation at 16000×g for 20 minutes at 4° C. The supernatant was collected and used for measuring the citrate synthase activity after 1:200 dilutions. Protein concentration in the samples was measured using BCA assay. […] Finally 20 μL of the substrate oxaloacetate from tube B was added to each well and absorbance was recorded immediately at 412 nm (50 seconds interval for 30 min at room temperature). The citrate synthase activity was calculated through the kinetic plot obtained from the time (min) vs. optical density (OD=412 nm) using the formula: CS Activity=(ΔA412 min−1/5.712 mM−×0.1 mL/0.03 mL)×sample dilution nmoles/min/mL. […]

[5] = tested on: intracellular GSH in A2780/CP70 cells; assay: Cellular GSH assay with ThiolTracker Violet, flow cytometry; assay type: cell-based, human; conditions: 10 μM, 12 h
Protocol: The ability of Platin-B to interact with intracellular GSH in A2780/CP70 cells was investigated using the ThiolTracker Violet GSH detection reagent. Specifically, A2780/CP70 cells (4×10^5 cells/well/2 mL) were plated onto 6 well culture plates and allowed to grow overnight. […] After 12 h, both the attached and detached cells were collected by trypsinization, washed with PBS, and resuspended in Dulbecco's PBS (D-PBS) containing Ca^2+ and Mg^2+, glucose, and sodium pyruvate. The cells were then incubated with 10 μM (final concentration) ThiolTracker Violet for 30 min at 37° C. The cells were then washed with D-PBS, resuspended in buffer, and immediately analyzed on a flow cytometer with 405 nm excitation and 525 nm emission filters. The ThiolTracker Violet stain is a highly thiol reactive fluorescent probe and can be utilized in effective detection of intracellular GSH by quantitative detection modalities such as flow cytometry.

A2780/CP70 cells [6] = assay: MTT cytotoxicity assay in cisplatin resistant A2780/CP70 cells; assay type: cell-based, human; conditions: 72 h
Protocol: (§1) Human prostate cancer cell line PC3 and DU145 were procured from the American type culture collection (ATCC). Ovarian cancer A2780 cells were obtained from Prof, Robert Brown, Imperial College London. […] Cells were passed every 3 to 4 days and restarted from frozen stocks upon reaching 20 passages.
(§2) PC3, A2780, or A2780/CP70 cells (2000 cells/well/100 μL) were seeded on a 96-well plate in 100 μL of desired medium and incubated for 24 h. After 24 h, media was removed and fresh media was added. The cells were treated with different constructs at varying concentrations and incubated for 72 h at 37° C. in 5% CO2. The cells were then treated with 20 μL of MTT (5 mg/mL in PBS) for 5 h. The medium was removed, the cells were lysed with 100 μL of DMSO, and the absorbance of the purple formazan was recorded at 550 nm using a Bio-Tek Synergy HT microplate reader. The background absorbance for each well was measured at 800 nm. Each well was performed in triplicate. […] Cells were grown for 7 days in high glucose medium prior to the MTT experiment. Cytotoxicity was expressed as mean percentage increase relative to the unexposed control±SD. Control values were set at 0% cytotoxicity or 100% cell viability.

PC3 cells = assay: MTT cytotoxicity assay in PC3 cells; assay type: cell-based, human
Protocol: as §1, §2

SMILES	GSH conjugation catalyzed by GST (GST enzyme)	effect on mitochondrial respiration (OCR) [1]	Pt(IV)/Pt(II) couple reduction potential ([2]; pH 6.0, 40% DMF-PBS)	Pt(IV)/Pt(II) couple reduction potential ([2]; pH 7.4, 40% DMF-PBS)	sensitivity of resistant cells (Annexin V-PI apoptosis-necrosis) (A2780/CP70 cells [3])	mitochondrial content by citrate synthase activity [4]	effect on intracellular GSH levels [5]	IC50 (A2780/CP70 cells [6]; Homo sapiens) [µM]	IC50 (PC3 cells; Homo sapiens, PC-3, 72 h) [µM]	IC50 (A2780/CP70 cells [6]) [µM]	IC50 (PC3 cells; 72 h) [µM]
[NH2][Pt]([NH2])([Cl])([Cl])([O]C(=O)CCCCCBr)[O]C(=O)CCCCCBr [Platin-B]	more efficient	inhibited mitochondrial respiration significantly	~−0.187 V vs. normal hydrogen electrode (NHE)	~−0.217 V vs. normal hydrogen electrode (NHE)	high degree of sensitivity	lower mitochondrial content	enhanced ability to reduce GSH levels	–	–	–	–
O=C(O)CCCCCBr [6-BH, 6-bromohexanoic acid]	–	–	–	–	–	–	–	> 100	> 100	–	–
N.N.[Cl][Pt][Cl] [Cisplatin, cis-diamminedichloridoplatinum(II), reference compound]	–	did not demonstrate such activities	–	–	–	–	minimal effect	–	–	14.7 ± 0.9	14.4 ± 1.6
